Measured values from US9211294B2, “Phenothiazine compounds for treating mild cognitive impairment” (WisTa Laboratories Ltd., priority 2007, dated 2015).
Entries after “also recorded” stand apart in the source; their conditions may differ. Counter-ions that a name gives are not always drawn.

Assays:
saline treated NMRI mice = test: Morris water maze spatial reference memory task, drug given after saline (otherwise unimpaired animals, side-effect profiling); format: in vivo; conditions: saline then Rivast (0.125), mg/kg i.p.
Protocol: (§1) Female, NMRI mice aged 3-4 months were from Harlan, UK.
Mice were group housed (7-9 per cage) and maintained with light from 7 am-7 pm and experiments carried out in the light phase. There were 82 mice in total, of which 12 were excluded from the study for circling behaviour during the water maze test. They were separated into 6 groups to receive drug administrations as follows:
(§2) The injection volume for drugs was 0.2 ml per 30 g animal weight and they were injected intraperitoneally. The doses were as indicated above.
Behavioural testing was undertaken using the Morris water maze spatial navigational task (Morris, 1984). […]
Each animal was given 6 trials/day and was allowed to swim for a maximum time of 60 seconds and stay 30 seconds on the platform. […] The behaviour of animals was recorded via an overhead camera and data transmitted to the PC for online storage and analysis (EthoVision basic version 3.0.8. Noldus Information Technology, Netherlands). […]
Behavioural data of acquisition learning were analysed by conventional statistics (Graph Pad Prism version 4.01) using factorial repeated measures analysis of variance (ANOVA) with treatment as between-subject and day/trial as within-subject factor followed by planned comparisons between selected groups. […]

[1] = system: scopolamine-treated NMRI mice; test: Morris water maze spatial reference memory task, reversal of scopolamine-induced cognitive deficits; format: in vivo; conditions: for Learning / Thigmotaxis / S-T memory: mg/kg i.p.; for S-T memory: probe 1.5 h
Protocol: as §1
Mice were group housed (7-9 per cage) and maintained with light from 7 am-7 pm and experiments carried out in the light phase. […] They were separated into 6 groups to receive drug administrations as follows:
as §2
The water maze consisted of a water-filled pool (1.5 m diameter; 20±2° C.) in which a platform submerged 1 cm below water surface was the only means of escape. Mice were released from 4 cardinal sites (South, West, North and East) facing the wall of the pool in random fashion and thus had to acquire spatial knowledge of the exact platform location by spatial mapping procedures using distal cues.
Each animal was given 6 trials/day and was allowed to swim for a maximum time of 60 seconds and stay 30 seconds on the platform. […] An inter-trial interval of 10-20 minutes was given. The animals were trained for 4 consecutive days and received probe trials (free swim for 60 seconds without platform in the pool) approximately 1.5 and 24 hours post-training to test short and long-term memory, respectively. The behaviour of animals was recorded via an overhead camera and data transmitted to the PC for online storage and analysis (EthoVision basic version 3.0.8. Noldus Information Technology, Netherlands).
Probe trial data were analysed by one-way ANOVA and the appropriate post-hoc tests (Bonferroni's multiple comparison test or Newman Keuls) were carried out to determine the source of a significant main effect or interaction. Analyses were performed two-tailed and the null hypothesis was […] at probability levels of 5% (p<0.05). Only terms for reliable differences are mentioned in the text for simplicity.

mice = format: in vivo; conditions: for highest effective and safe dose: i.p., mice
[2] = system: NMRI mice aged 2-3, 6 and 13 months; test: Water maze learning and memory in young and aged NMRI mice; conditions: 2-3 month mice; 1.5 hours; MTC 1 mg/kg i.p.
[3] = in vivo, ip
[4] = Brain levels of MTC after administration; conditions: post administration
[5] = scopolamine 0.5 mg/kg then rivastigmine 0.5 mg/kg, probe trials
[6] = scopolamine (0.5) then Rivast (0.1)
[7] = scopolamine (0.5) then Rivast (0.125)
[8] = scopolamine (0.5) then Rivast (0.125), listed as Rivast
[9] = scopolamine (0.5) then Rivast (0.25)
[10] = scopolamine (0.5) then Rivast (0.25), listed as Rivast
[11] = scopolamine (0.5) then Rivast (0.5)
[12] = scopolamine (0.5) then Rivast (0.5), listed as Rivast

In the case of `CCN(C)C(=O)Oc1cccc([C@H](C)N(C)C)c1` [rivastigmine, rivastigmine tartrate], the Learning (saline treated NMRI mice) was “did not alter spatial learning”, the S-T memory (saline treated NMRI mice; probe 1.5 h) was “↑↓” and the “dose required to fully restore spatial learning” value ([1]; administered acutely, scopolamine-treated NMRI mice) was greater than 0.125 mg/kg. For the same molecule, the “overall learning between day 1 and 4 (overall reduction in path length)” value ([1]; scopolamine 0.5 mg/kg then rivastigmine 0.1 mg/kg) was “substantial overall improvement”, the “thigmotaxis during memory phase” value ([1]; scopolamine 0.5 mg/kg then rivastigmine 0.5 mg/kg) was “not significantly different from either scopolamine or saline” and the “logarithmic transform of pathlength (advanced analysis)” value ([1]; scopolamine 0.5 mg/kg then rivastigmine 0.5 mg/kg i.p., by day 4) was “reverse the deficit”. The “proportion of time spent in target quadrant (probe trials)” value ([1]; scopolamine 0.5 mg/kg then rivastigmine 0.5 mg/kg, pooled day 4 and day 5) was “did not reverse”, the “latency (composite parameter, temporal accuracy)” value [1, 5] was “no effect at all” and the “localisation (composite parameter, spatial accuracy)” value [1, 5] was “not able to reverse the deficit”. For the same molecule, the Learning [1, 6] was “ineffective”, the Thigmotaxis [1, 6] was “↓” and the Learning ([1]; scopolamine (0.5) then Rivast (0.1), listed as Rivast) was “↓”. The S-T memory [1, 6] was “↓”, the Thigmotaxis [1, 7] was “↑” and the Learning [1, 8] was “↑”. For the same molecule, the Learning ([1]; scopolamine (0.5) then Rivast (0.125), listed as Rivastigmine) was “fully reversed”, the S-T memory [1, 7] was “spatial bias was established” and the S-T memory [1, 8] was “↑”. For the same molecule, the Learning [1, 9] was “only partial”, the Thigmotaxis [1, 9] was “↓” and the Learning [1, 10] was “↑↓”. For the same molecule, the S-T memory [1, 9] was “memory deficit”, the S-T memory [1, 10] was “↓” and the Thigmotaxis [1, 11] was “reversed”. For the same molecule, the Learning [1, 12] was “↑”, the Thigmotaxis [1, 12] was “↑” and the Learning ([1]; scopolamine (0.5) then Rivast (0.5), listed as Rivastigmine) was “completely reversed; also recorded: fully reversed”. For the same molecule, the S-T memory [1, 11] was “memory deficit”, the S-T memory [1, 12] was “↓” and the “adverse effects (motor coordination problems, ataxia, brief episodes of convulsions)” value (mice; doses of 0.5 and 0.25 mg/kg, in the absence of scopolamine treatment) was “severe adverse effects”. The “highest effective and safe dose” value (mice) was 0.125 mg/kg.
In the case of `CN(C)c1ccc2nc3ccc(N(C)C)cc3[s+]c2c1` [MTC, methyl-thioninium chloride], the “time spent in the target quadrant” value [2] was “no effect”, the “saturation of dose-response relationship for learning and memory formation” value ([1]; linear dose-response) was “about 4 mg/kg” and the “highest effective and safe dose” value (mice) was 4 mg/kg. For the same molecule, the “time of peak brain levels” value [3] was 30 to 60 min.
With methyl-thioninium chloride [MTC] the “time at which brain levels are maximal” value [4] was 1 to 4 h.
